Measured values published in ChEMBL document CHEMBL1201862, “PubChem BioAssay data set” (2004).
Active and inactive are the calls of the source.

Tests used:
[1] = biological target: Cystic fibrosis transmembrane conductance regulator/Golgi-associated PDZ and coiled-coil motif-containing protein (Homo sapiens, UniProt P13569+Q9HD26); experiment: CAL PDZ peptide-binding inhibitors, dose response, biochemical, fluorescence polarization, Cerulean-tagged CAL PDZ, cherry-picks (AID 504773)
[2] = biological target: T1, Replicative DNA helicase DnaB (Mycobacterium tuberculosis, UniProt P9WMR3); experiment: DnaB intein splicing inhibitors, dose response, biochemical, cell-free fluorescence (AID 449749); assay type: functional
T1 sequence (P9WMR3 whole entry): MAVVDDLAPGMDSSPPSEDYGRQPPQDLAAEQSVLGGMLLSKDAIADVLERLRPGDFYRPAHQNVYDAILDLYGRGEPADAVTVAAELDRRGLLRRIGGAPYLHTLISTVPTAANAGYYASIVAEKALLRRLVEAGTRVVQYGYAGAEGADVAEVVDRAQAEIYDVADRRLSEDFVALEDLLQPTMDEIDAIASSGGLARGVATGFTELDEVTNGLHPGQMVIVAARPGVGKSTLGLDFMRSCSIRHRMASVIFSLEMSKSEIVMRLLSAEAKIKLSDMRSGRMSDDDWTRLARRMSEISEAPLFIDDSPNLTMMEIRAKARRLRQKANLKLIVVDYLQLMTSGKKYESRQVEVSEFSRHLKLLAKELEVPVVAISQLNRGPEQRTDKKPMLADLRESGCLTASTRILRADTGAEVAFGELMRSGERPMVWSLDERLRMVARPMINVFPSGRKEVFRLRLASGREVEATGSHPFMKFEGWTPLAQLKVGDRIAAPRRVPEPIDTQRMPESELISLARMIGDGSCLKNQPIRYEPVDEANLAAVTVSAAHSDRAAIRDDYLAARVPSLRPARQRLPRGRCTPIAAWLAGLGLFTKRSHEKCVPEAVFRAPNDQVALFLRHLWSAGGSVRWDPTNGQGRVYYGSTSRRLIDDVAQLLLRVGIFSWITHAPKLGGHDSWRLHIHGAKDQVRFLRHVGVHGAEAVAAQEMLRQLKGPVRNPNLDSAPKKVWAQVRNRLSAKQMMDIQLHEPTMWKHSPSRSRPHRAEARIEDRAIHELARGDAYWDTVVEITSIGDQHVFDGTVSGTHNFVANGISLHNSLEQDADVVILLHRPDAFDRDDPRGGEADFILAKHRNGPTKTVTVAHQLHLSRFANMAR

[3] = biological target: Serine/threonine-protein kinase PLK3 (Homo sapiens, UniProt Q9H4B4); assay type: functional
Serine/threonine-protein kinase PLK3, sequence (Q9H4B4 whole entry): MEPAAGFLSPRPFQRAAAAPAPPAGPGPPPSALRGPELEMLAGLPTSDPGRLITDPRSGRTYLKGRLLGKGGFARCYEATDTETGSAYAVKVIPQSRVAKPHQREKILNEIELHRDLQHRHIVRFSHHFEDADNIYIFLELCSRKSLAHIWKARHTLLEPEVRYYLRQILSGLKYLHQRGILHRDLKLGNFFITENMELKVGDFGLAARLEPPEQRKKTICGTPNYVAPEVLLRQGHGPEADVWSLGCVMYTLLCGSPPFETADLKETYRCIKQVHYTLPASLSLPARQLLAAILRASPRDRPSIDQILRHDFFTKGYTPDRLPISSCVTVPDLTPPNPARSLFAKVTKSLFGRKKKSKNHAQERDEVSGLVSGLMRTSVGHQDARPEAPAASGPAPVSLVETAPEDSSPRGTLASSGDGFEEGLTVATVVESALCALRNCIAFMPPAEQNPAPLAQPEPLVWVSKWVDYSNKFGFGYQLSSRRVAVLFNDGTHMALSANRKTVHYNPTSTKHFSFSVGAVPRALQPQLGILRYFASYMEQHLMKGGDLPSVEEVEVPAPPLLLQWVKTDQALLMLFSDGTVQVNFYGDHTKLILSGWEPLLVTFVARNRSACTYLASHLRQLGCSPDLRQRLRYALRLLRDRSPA

[4] = biological target: RAC-gamma serine/threonine-protein kinase (Homo sapiens, UniProt Q9Y243); assay type: functional
[5] = biological target: Tyrosine-protein kinase Lck (Homo sapiens, UniProt P06239); assay type: functional;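 also: lck was assayed as one member of a kinase panel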
[6] = biological target: Glycogen synthase kinase-3 alpha (Homo sapiens, UniProt P49840); assay type: functional;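 also: GSK3A result taken from a broad kinome-wide kinase panel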
[7] = biological target: Inhibitor of nuclear factor kappa-B kinase subunit alpha (Homo sapiens, UniProt O15111); assay type: functional
[8] = biological target: Serine/threonine-protein kinase PLK1 (Homo sapiens, UniProt P53350); assay type: functional;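 also: PLK1 measured as one member of a kinome-wide profiling panel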
[9] = biological target: Glycogen synthase kinase-3 beta (Homo sapiens, UniProt P49841); assay type: functional;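 also: value comes from a broad kinome profiling panel, with GSK3B as the panel member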
[10] = biological target: cAMP-dependent protein kinase catalytic subunit alpha (Homo sapiens, UniProt P17612); assay type: functional
[11] = biological target: Dual specificity tyrosine-phosphorylation-regulated kinase 1A (Homo sapiens, UniProt Q13627); assay type: functional;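 also: measured against DYRK1A as one member of a broad kinome profiling panel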
[12] = biological target: ALK tyrosine kinase receptor (Homo sapiens, UniProt Q9UM73); assay type: functional;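 also: ALK tested as one member of a kinase panel screen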
[13] = biological target: Testis-specific serine/threonine-protein kinase 2 (Homo sapiens, UniProt Q96PF2); assay type: functional;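 also: part of the Navigating the Kinome panel, target entry STK22B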
Testis-specific serine/threonine-protein kinase 2, sequence (Q96PF2 whole entry): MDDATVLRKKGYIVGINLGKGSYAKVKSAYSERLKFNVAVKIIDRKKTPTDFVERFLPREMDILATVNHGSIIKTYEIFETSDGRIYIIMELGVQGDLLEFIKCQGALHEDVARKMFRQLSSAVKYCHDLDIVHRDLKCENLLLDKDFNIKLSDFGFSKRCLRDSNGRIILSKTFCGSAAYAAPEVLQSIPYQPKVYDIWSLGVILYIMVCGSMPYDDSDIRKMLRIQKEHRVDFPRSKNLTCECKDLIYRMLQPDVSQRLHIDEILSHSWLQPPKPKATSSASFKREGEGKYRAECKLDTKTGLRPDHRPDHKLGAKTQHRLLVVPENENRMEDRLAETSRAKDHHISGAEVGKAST

[14] = biological target: Serine/threonine-protein kinase 17A (Homo sapiens, UniProt Q9UEE5); assay type: functional
[15] = biological target: Rho-associated protein kinase 2 (Homo sapiens, UniProt O75116); assay type: functional
[16] = biological target: Tyrosine-protein kinase BTK (Homo sapiens, UniProt Q06187); assay type: functional
[17] = biological target: Calcium/calmodulin-dependent protein kinase type II subunit delta (Homo sapiens, UniProt Q13557); assay type: functional
Calcium/calmodulin-dependent protein kinase type II subunit delta, sequence (Q13557 whole entry): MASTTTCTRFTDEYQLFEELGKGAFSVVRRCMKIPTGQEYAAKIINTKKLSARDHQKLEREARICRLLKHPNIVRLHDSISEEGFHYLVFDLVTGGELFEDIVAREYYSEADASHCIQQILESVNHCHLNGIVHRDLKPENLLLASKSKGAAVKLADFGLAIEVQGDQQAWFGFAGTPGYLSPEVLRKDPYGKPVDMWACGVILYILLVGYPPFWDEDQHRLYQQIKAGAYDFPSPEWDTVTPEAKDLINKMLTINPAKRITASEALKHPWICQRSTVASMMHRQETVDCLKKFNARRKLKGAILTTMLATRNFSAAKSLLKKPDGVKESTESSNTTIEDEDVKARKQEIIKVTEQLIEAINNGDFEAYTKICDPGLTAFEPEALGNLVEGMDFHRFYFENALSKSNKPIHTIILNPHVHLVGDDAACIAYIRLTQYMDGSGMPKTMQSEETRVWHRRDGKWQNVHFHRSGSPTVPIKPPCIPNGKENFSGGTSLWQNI

[18] = biological target: Tyrosine-protein kinase Blk (Homo sapiens, UniProt P51451); assay type: functional;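 also: obtained as one member of a kinome-wide kinase assay panel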
Tyrosine-protein kinase Blk, sequence (P51451 whole entry): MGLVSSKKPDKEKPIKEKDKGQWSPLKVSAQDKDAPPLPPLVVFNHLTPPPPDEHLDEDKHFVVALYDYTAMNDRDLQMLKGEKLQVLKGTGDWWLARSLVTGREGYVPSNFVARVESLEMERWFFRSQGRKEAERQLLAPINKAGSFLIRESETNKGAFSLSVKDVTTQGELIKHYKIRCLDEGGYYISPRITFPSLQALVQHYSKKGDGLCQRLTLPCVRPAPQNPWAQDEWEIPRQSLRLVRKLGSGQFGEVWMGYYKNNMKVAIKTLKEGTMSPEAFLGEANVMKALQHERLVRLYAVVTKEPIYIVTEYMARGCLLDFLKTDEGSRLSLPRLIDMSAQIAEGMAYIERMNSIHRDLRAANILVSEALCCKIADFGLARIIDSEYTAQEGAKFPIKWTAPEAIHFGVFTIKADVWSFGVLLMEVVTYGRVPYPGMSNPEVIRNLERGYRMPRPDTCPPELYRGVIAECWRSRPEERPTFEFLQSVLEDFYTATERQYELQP

[19] = biological target: Mitogen-activated protein kinase 13 (Homo sapiens, UniProt O15264); assay type: functional
[20] = biological target: Mitogen-activated protein kinase kinase kinase 20 (Homo sapiens, UniProt Q9NYL2); assay type: functional
[21] = biological target: Tyrosine-protein kinase Srms (Homo sapiens, UniProt Q9H3Y6); assay type: functional;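 also: SRMS measured as one member of a kinome-wide kinase profiling panel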
[22] = biological target: Mitogen-activated protein kinase kinase kinase kinase 2 (Homo sapiens, UniProt Q12851); assay type: functional;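 also: measured as one member of a kinome-wide kinase panel, with MAP4K2 as the panel entry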
Mitogen-activated protein kinase kinase kinase kinase 2, sequence (Q12851 whole entry): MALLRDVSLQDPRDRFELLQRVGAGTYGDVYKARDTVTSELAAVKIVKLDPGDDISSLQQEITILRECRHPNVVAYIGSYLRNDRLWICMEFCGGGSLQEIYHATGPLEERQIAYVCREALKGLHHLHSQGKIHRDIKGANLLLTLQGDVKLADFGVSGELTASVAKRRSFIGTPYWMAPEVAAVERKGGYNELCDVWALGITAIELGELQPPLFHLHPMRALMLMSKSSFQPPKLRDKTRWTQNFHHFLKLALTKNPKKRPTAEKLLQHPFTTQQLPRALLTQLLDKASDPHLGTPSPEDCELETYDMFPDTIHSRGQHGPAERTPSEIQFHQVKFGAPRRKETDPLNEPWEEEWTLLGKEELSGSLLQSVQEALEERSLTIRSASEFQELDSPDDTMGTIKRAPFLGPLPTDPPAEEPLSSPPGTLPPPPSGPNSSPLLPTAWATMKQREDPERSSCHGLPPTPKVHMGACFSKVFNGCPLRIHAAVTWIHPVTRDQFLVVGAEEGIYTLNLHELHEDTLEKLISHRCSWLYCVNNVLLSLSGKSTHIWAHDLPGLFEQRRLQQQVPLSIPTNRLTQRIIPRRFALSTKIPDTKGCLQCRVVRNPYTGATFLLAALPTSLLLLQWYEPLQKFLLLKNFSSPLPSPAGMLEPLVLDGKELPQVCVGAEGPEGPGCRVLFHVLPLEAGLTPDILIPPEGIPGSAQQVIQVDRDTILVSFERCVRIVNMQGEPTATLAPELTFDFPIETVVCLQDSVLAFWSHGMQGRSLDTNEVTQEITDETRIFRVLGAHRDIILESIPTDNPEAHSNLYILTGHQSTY

[23] = biological target: Misshapen-like kinase 1 (Homo sapiens, UniProt Q8N4C8); assay type: functional;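 also: kinome panel screen with MINK as the panel member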
Misshapen-like kinase 1, sequence (Q8N4C8 whole entry): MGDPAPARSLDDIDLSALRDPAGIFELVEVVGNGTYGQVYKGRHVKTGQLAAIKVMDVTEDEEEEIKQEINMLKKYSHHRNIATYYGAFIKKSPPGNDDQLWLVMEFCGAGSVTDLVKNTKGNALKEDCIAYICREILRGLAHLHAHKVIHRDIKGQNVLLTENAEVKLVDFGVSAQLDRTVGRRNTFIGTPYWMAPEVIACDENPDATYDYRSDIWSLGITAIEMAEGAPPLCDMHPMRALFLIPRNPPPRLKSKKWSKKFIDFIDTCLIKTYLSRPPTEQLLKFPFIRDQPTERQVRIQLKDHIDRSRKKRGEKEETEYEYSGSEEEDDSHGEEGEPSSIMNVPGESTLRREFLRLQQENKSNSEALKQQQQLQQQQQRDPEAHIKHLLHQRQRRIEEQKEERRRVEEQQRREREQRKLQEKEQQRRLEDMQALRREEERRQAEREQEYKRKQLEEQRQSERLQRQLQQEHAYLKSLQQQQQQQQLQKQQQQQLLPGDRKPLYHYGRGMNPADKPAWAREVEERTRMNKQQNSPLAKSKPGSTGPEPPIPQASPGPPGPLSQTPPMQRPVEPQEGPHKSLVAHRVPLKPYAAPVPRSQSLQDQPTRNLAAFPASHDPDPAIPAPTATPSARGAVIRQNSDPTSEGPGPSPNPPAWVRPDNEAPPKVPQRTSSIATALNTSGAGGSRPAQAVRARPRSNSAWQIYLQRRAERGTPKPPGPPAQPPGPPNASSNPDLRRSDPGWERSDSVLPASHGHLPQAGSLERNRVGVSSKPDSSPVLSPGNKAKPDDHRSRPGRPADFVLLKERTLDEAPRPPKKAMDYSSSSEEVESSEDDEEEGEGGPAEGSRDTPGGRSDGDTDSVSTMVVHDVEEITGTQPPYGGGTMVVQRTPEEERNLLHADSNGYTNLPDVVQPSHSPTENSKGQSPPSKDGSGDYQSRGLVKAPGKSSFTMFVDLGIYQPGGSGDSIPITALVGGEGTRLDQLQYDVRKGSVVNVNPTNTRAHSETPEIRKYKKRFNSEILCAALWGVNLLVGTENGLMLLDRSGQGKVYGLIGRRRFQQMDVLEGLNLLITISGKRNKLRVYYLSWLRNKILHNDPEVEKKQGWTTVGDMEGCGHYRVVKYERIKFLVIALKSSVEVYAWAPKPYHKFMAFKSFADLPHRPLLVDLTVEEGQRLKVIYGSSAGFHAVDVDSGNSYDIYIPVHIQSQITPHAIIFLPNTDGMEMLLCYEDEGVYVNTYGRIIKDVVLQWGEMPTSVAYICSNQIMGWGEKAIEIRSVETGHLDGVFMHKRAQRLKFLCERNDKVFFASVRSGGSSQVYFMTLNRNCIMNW

[24] = biological target: Serine/threonine-protein kinase Nek4 (Homo sapiens, UniProt P51957); assay type: functional
Serine/threonine-protein kinase Nek4, sequence (P51957 whole entry): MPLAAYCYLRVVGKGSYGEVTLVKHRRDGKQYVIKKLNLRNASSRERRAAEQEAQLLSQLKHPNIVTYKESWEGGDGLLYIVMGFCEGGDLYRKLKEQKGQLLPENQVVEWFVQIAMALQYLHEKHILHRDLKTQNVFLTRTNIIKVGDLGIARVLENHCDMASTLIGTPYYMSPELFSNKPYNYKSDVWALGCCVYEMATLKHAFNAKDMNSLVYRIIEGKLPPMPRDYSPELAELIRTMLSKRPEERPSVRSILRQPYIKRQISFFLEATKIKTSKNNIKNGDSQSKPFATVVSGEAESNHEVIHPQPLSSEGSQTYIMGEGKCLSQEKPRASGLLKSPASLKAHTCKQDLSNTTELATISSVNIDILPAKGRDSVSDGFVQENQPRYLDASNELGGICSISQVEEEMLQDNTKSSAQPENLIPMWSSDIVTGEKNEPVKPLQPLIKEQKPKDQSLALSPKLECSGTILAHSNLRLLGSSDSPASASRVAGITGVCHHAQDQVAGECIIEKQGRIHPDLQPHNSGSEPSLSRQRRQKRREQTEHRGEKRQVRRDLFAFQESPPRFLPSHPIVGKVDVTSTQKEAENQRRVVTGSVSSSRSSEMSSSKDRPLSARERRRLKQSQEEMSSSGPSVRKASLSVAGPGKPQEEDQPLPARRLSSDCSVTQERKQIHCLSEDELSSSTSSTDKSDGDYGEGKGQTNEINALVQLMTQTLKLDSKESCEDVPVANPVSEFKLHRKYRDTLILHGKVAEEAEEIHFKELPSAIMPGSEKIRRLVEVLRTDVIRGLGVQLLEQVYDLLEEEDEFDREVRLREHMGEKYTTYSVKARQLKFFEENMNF

[25] = biological target: Dual specificity tyrosine-phosphorylation-regulated kinase 4 (Homo sapiens, UniProt Q9NR20); assay type: functional
[26] = biological target: Interleukin-1 receptor-associated kinase 1 (Homo sapiens, UniProt P51617); assay type: functional;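 also: IRAK1 tested as one member of a kinome panel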
[27] = biological target: Vascular endothelial growth factor receptor 1 (Homo sapiens, UniProt P17948); assay type: functional;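 also: measured within a kinome-wide profiling panel, FLT1 as the panel member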

For `CC(=O)NC1C(=O)N(CCN2CCOCC2)c2ccc(Cl)cc21` (configuration not stated), the AC50 [1] was 26800 nM (active) and the AC50 [2] was 16600 nM (active).

In the case of `Cc1c(C=O)c(O)n2c(nc3ccccc32)c1C#N`, the Ki [3] is reported as 794 nM (active), the Ki [4] is reported as > 10000 nM (inactive) and the Ki [5] is reported as > 2510 nM (inactive). For the same molecule, the Ki [6] was 3980 nM (active), the Ki [7] was > 3980 nM (inactive) and the Ki [8] was 1260 nM (active). The Ki [9] was 3160 nM (active), the Ki [10] was > 7940 nM (inactive) and the Ki [11] was 501 nM (active).

With `Cc1n[nH]c2cnc(-c3cncc(OCC(N)Cc4cccc(C(F)(F)F)c4)c3)cc12` (configuration not stated) the Ki [12] was > 1260 nM (inactive), the Ki [13] was 79.4 nM (active) and the Ki [14] was 501 nM (active). For the same molecule, the Ki [15] was 20 nM (active), the Ki [16] was > 1260 nM (inactive) and the Ki [17] was 5.01 nM (active). For the same molecule, the Ki [18] was > 1580 nM (inactive), the Ki [19] was 1580 nM (active) and the Ki [20] was > 7940 nM (inactive). The Ki [21] was > 1580 nM (inactive), the Ki [22] was 63.1 nM (active) and the Ki [23] was 3.98 nM (active). For the same molecule, the Ki [24] was 316 nM (active), the Ki [25] was 126 nM (active) and the Ki [26] was 316 nM (active). For the same molecule, the Ki [27] was > 398 nM (inactive).
